Reference: patent publication US12116358B2, “Substituted indoles and methods of use thereof” (EPIZYME, INC., priority 2018, dated 2024)
Read-outs that look alike come from different tables or passages of the source.

How the values were obtained:
H3K36me3 in A549 cells = test: In-Cell Western (ICW) assay of SETD2 inhibitors (A549 assay); assay type: cell-based, human; conditions: A549 cells, read-out: SETD2 A549
Outline: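 A549 cells seeded at 4,000/well onto compound and incubated 3 days at 37° C. Methanol-fixed cells stained overnight at 4° C with anti-H3K36me3 (1:1000), then IRDye 800CW secondary with DRAQ5 DNA counterstain. Plates read by Licor imaging at 700 and 800 channels.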

SETD2(1434-1711) = target: T1, SETD2(1434-1711) (Homo sapiens, UniProt Q9BYW2); test: SETD2 (1434-1711) assay; assay type: biochemical; conditions: read-out: SETD2 (1434-1711)
T1 construct: SETD2 (1434-1711) Assay; catalogue N/A
T1 sequence (Q9BYW2 1434-1711): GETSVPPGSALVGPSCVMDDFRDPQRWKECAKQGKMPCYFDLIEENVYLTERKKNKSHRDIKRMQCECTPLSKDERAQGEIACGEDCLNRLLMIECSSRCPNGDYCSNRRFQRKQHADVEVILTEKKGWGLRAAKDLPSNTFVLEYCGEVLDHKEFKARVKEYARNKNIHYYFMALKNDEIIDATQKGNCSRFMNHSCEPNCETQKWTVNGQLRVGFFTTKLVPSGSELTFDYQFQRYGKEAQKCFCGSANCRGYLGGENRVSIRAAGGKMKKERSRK

Cc1ccc(F)c2cc(C(=O)N[C@@H]3CCC[C@@H](N4CCn5cnnc5C4)C3)[nH]c12 [compound 861]
IC50 (H3K36me3 in A549 cells): > 2 µM | IC50 (SETD2(1434-1711)): 1.9 µM

CC[C@H]1CN([C@@H]2CCC[C@@H](NC(=O)c3cc4c(F)ccc(C)c4[nH]3)C2)CCN1C(C)=O [compound 1086]
IC50 (H3K36me3 in A549 cells; Homo sapiens): > 2 µM | IC50 (SETD2(1434-1711)): 0.8 µM

Cc1ccc(F)c2cc(C(=O)N[C@H]3CCC[C@@H](c4cccnc4)C3)[nH]c12 [compound 905]
IC50 (H3K36me3 in A549 cells; Homo sapiens): > 2 µM | IC50 (SETD2(1434-1711)): 2.9 µM

Cc1ccc(F)c2cc(C(=O)Nc3cccc(N4CCN(C(=O)N(C)C)CC4)c3)[nH]c12 [compound 55]
IC50 (H3K36me3 in A549 cells; Homo sapiens): 0.1 µM | IC50 (SETD2(1434-1711)): 0.05 µM

Cc1ccc(NC(=O)c2cc3c(F)ccc(C)c3[nH]2)cc1N1CCN(C)CC1 [compound 270]
IC50 (H3K36me3 in A549 cells; Homo sapiens): 0.8 µM | IC50 (SETD2(1434-1711)): 0.05 µM

Cc1ccc(F)c2cc(C(=O)N[C@@H]3CCC[C@@H](N4CCn5cncc5C4)C3)[nH]c12 [compound 992]
IC50 (H3K36me3 in A549 cells; Homo sapiens): > 2 µM | IC50 (SETD2(1434-1711)): 1.9 µM

Cc1ccc(F)c2cc(C(=O)Nc3cccc([C@@H]4CC[C@H](N(C)C)C4)c3)[nH]c12 [compound 302]
IC50 (H3K36me3 in A549 cells; Homo sapiens): 1.2 µM | IC50 (SETD2(1434-1711)): 0.03 µM

Cc1ccc(F)c2cc(C(=O)Nc3cccc(-c4cn5ccccc5n4)c3)[nH]c12 [compound 286]
IC50 (H3K36me3 in A549 cells; Homo sapiens): 1 µM | IC50 (SETD2(1434-1711)): 0.1 µM

Cc1ccc(F)c2cc(C(=O)Nc3cccc(N4CCC5(CCN(CC(F)F)CC5)C4)c3)[nH]c12 [compound 259]
IC50 (H3K36me3 in A549 cells; Homo sapiens): 0.6 µM | IC50 (SETD2(1434-1711)): 0.1 µM

Cc1ccc(F)c2cc(C(=O)Nc3cccc(-c4ccn[nH]4)c3)[nH]c12 [compound 322]
IC50 (H3K36me3 in A549 cells; Homo sapiens): 1.5 µM | IC50 (SETD2(1434-1711)): 0.5 µM

Cc1ccc(F)c2cc(C(=O)Nc3cc(Cl)cc(-c4cncnc4)c3)[nH]c12 [compound 145]
IC50 (H3K36me3 in A549 cells; Homo sapiens): 0.3 µM | IC50 (SETD2(1434-1711)): 0.03 µM

Cc1cccnc1C(NC(=O)c1cc2ncccn2n1)C1CC1 (stereo not drawn) [compound 604]
IC50 (H3K36me3 in A549 cells; Homo sapiens): > 25 µM | IC50 (SETD2(1434-1711)): > 50 µM

Cc1ccc(F)c2cc(C(=O)N[C@@H]3CCC[C@@H](N4CCC(=O)N(C)CC4)C3)[nH]c12 [compound 945]
IC50 (H3K36me3 in A549 cells): > 2 µM | IC50 (SETD2(1434-1711)): 0.1 µM

Cc1cc2ncc(CN(C)C)n2cc1NC(=O)c1cc2cccc(C)c2[nH]1 [compound 551]
IC50 (H3K36me3 in A549 cells): > 25 µM | IC50 (SETD2(1434-1711)): 6.7 µM

Cc1ccc(F)c2cc(C(=O)Nc3cccc(N4CCC(OCCN)CC4)c3)[nH]c12 [compound 240]
IC50 (H3K36me3 in A549 cells): 0.6 µM | IC50 (SETD2(1434-1711)): 0.02 µM

Cc1ccc(F)c2cc(C(=O)Nc3cccc(N4CC5(CCNCC5)C4)c3)[nH]c12 [compound 184]
IC50 (H3K36me3 in A549 cells; Homo sapiens): 0.4 µM | IC50 (SETD2(1434-1711)): 0.01 µM

CCN([C@@H]1CCN([C@H]2CCC[C@@H](NC(=O)c3cc4c(F)ccc(C)c4[nH]3)C2)C1)S(C)(=O)=O [compound 1054]
IC50 (H3K36me3 in A549 cells; Homo sapiens): 0.09 µM | IC50 (SETD2(1434-1711)): 0.01 µM

Cc1ccc(F)c2cc(C(=O)Nc3cccc(N4CCC(N5CCCC5)CC4)c3)[nH]c12 [compound 180]
IC50 (H3K36me3 in A549 cells; Homo sapiens): 0.4 µM | IC50 (SETD2(1434-1711)): 0.03 µM

Cc1ccc(F)c2cc(C(=O)Nc3cc(F)cc(N4CCN(C(=O)CN(C)C)CC4)c3)[nH]c12 [compound 62]
IC50 (H3K36me3 in A549 cells): 0.1 µM | IC50 (SETD2(1434-1711)): 0.009 µM

CC(=O)N1CCN([C@@H]2CCC[C@@H](NC(=O)c3cc4c(F)ccc(C)c4[nH]3)C2)[C@H](C)C1 [compound 1091]
IC50 (H3K36me3 in A549 cells; Homo sapiens): > 2 µM | IC50 (SETD2(1434-1711)): 5.8 µM

Cc1ccc(F)c2cc(C(=O)Nc3cccc(-c4nnc(C5CC5)o4)c3)[nH]c12 [compound 119]
IC50 (H3K36me3 in A549 cells): 0.2 µM | IC50 (SETD2(1434-1711)): 0.03 µM

Cc1ccc(F)c2cc(C(=O)Nc3cccc(N4CCOC(C5CC5)C4)c3)[nH]c12 (stereo not drawn) [compound 143]
IC50 (H3K36me3 in A549 cells; Homo sapiens): 0.3 µM | IC50 (SETD2(1434-1711)): 0.06 µM

Cc1ccc(F)c2cc(C(=O)Nc3cccc(C4CCCN4)c3)[nH]c12 (stereo not drawn) [compound 425]
IC50 (H3K36me3 in A549 cells): 3.9 µM | IC50 (SETD2(1434-1711)): 0.3 µM

Cc1cccc2cc(C(=O)NC3CCN(C(=O)CCCN)CC3C)[nH]c12 (stereo not drawn) [compound 614]
IC50 (H3K36me3 in A549 cells): > 25 µM | IC50 (SETD2(1434-1711)): 62.7 µM

Cc1cccnc1C(CCC(=O)N1CCOCC1)NC(=O)c1cc2cccc(C)c2[nH]1 (stereo not drawn) [compound 420]
IC50 (H3K36me3 in A549 cells): 3.6 µM | IC50 (SETD2(1434-1711)): 2.4 µM

Cc1cccc2cc(C(=O)Nc3ccc4nc(CN5CCNCC5)ncc4c3)[nH]c12 [compound 541]
IC50 (H3K36me3 in A549 cells): > 25 µM | IC50 (SETD2(1434-1711)): 2 µM

Cc1cccc2cc(C(=O)Nc3cccc(N4CCC(NCCN)CC4)n3)[nH]c12 [compound 531]
IC50 (H3K36me3 in A549 cells; Homo sapiens): > 25 µM | IC50 (SETD2(1434-1711)): 0.2 µM

Cc1cc(CCNC(=O)Cc2cccnc2)cnc1C(NC(=O)c1cc2cccc(C)c2[nH]1)C1CC1 (stereo not drawn) [compound 447]
IC50 (H3K36me3 in A549 cells): 5.5 µM | IC50 (SETD2(1434-1711)): 2.8 µM

Cc1ccc(F)c2cc(C(=O)Nc3cccc(N4CCN(C)C4=O)c3)[nH]c12 [compound 191]
IC50 (H3K36me3 in A549 cells; Homo sapiens): 0.4 µM | IC50 (SETD2(1434-1711)): 0.03 µM

CC(=O)N1C2CCC1CN(C1CCCC(NC(=O)c3cc4c(F)ccc(C)c4[nH]3)C1)C2 (stereo not drawn) [compound 927]
IC50 (H3K36me3 in A549 cells): > 2 µM | IC50 (SETD2(1434-1711)): 1.7 µM
